Measurements taken from patent publication US6914045B2, “Glycopeptide antibiotics” (Wyeth Holdings Corporation, priority 2001, dated 2005).
Values after ≈ are worked out from the molar mass of the structure shown.

Legend:
[1] = tested on: Staphylococcus aureus-SMITH (GC 4543); test: acute lethal infection in mice; assay type: in vivo; details: acute lethal infection, female CD-1 mice, intraperitoneal challenge, intravenous 30 min. after infection, 7 day survival
Summary of the method: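 Mice (female CD-1, 20+/−2 gm) receive bacteria ip in broth or hog gastric mucin, then test agent iv after 30 min. Median effective dose is calculated from 7 day survival pooled across 3 tests.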

[2] = anatomic pathology (histopathology of heart and kidney) in mice; assay type: in vivo; details: CD-1 mice, 20 mg/kg intravenously daily for 9 days, necropsy day 10, microscopic histopathology
Procedure: Samples of tissues from necropsied mice were formalin-fixed, paraffin-embedded, sectioned, stained with hematoxylin and eosin, and examined microscopically. Histopathologic findings were recorded. These findings were subjectively graded on a scale corresponding to slight, mild, moderate, marked and severe as compared to untreated controls.

Escherichia coli = test: in vitro antibacterial evaluation, MIC by broth dilution; assay type: cell-based; details: 18 hours at 35° C.
Streptococcus sp. = test: as above; assay type: cell-based; details: broth dilution, 18 hours at 35° C.
Summary of the method: (§1)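 Broth dilution per NCCLS M7-A2 in Mueller-Hinton II medium, inoculum 5×10^5 CFU/mL, antibiotic range 64-0.06 μg/mL. MIC taken as lowest concentration inhibiting growth; Gram-positive panel includes recent clinical isolates resistant to methicillin, penicillin and/or vancomycin.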

Enterococcus sp. = test: as above; assay type: cell-based; details: broth dilution, 18 hours at 35° C.
Summary of the method: as §1

Staphylococcus sp. = test: as above; assay type: cell-based; details: broth dilution, 18 hours at 35° C.
Summary of the method: as §1

## COc1ccc2cc(COC3C(CO)OC(OC4C(CO)OC(Oc5ccc(CC6NC(=O)C(C(C)c7ccccc7)NC(=O)CNC(=O)C(CO)NC(=O)C(C(O)C7CNC(=N)N7C7OC(CO)C(O)C(O)C7O)NC(=O)C(C(O)C7CNC(=N)N7)NC6=O)cc5)C(O)C4O)C(O)C3O)ccc2c1 (stereo not drawn) [Example 230a, Cyclo[glycyl-β-methylphenylalanyl-O-[4-O-[4-O-[(6-methoxy-2-naphthyl)methyl]hexopyranosyl]hexopyranosyl]tyrosyl-3-(2-iminoimidazolidin-4-yl)seryl-3-(3-hexopyranosyl-2-iminoimidazolidin-4-yl)serylseryl]]
[1]
  median effective dose (ED50), Staphylococcus aureus-SMITH (GC 4543): 0.06 mg/kg
[2]
  Anatomical Pathology (Day 10), Heart: 0
  Anatomical Pathology (Day 10), Kidney: +
Escherichia coli
  MIC Escherichia coli (ATCC 25922): 32 µg/mL (≈ 21.8 µM)
  MIC Escherichia coli (GC 4559): 32 µg/mL (≈ 21.8 µM)
  MIC Escherichia coli (GC 4560): 0.25 to 1 µg/mL
Streptococcus sp.
  MIC Streptococcus agalactiae (GC 4564): <0.06 to 0.12 µg/mL
  MIC Streptococcus pneumoniae (ATCC 6301): <0.06 µg/mL
  MIC Streptococcus pneumoniae (GC 1894): <0.06 µg/mL
  MIC Streptococcus pneumoniae (GC 4565): <0.06 µg/mL
  MIC Streptococcus pyogenes (GC 4563): <0.06 to 0.25 µg/mL
Streptococcus sp.; inoculum 5×10^5 CFU/mL, strain ATCC 6301
  MIC Streptococcus pneumoniae (ATCC 6301): <0.06 µg/mL
Streptococcus sp.; inoculum 5×10^5 CFU/mL, strain GC 1894
  MIC Streptococcus pneumoniae (GC 1894): <0.06 µg/mL
Streptococcus sp.; inoculum 5×10^5 CFU/mL, strain GC 4563
  MIC Streptococcus pyogenes (GC 4563): <0.06 to 0.25 µg/mL
Streptococcus sp.; inoculum 5×10^5 CFU/mL, strain GC 4564
  MIC Streptococcus agalactiae (GC 4564): <0.06 to 0.12 µg/mL
Streptococcus sp.; inoculum 5×10^5 CFU/mL, strain GC 4565
  MIC Streptococcus pneumoniae (GC 4565): <0.06 µg/mL
Enterococcus sp.
  MIC Enterococcus avium (GC 4558): 2 to 4 µg/mL
  MIC Enterococcus faecalis (ATCC 29212): 2 to 4 µg/mL
  MIC Enterococcus faecalis (GC 2242): 2 to 4 µg/mL
  MIC Enterococcus faecalis (GC 2691): 2 to 4 µg/mL
  MIC Enterococcus faecalis (GC 3059): 2 to 4 µg/mL
  MIC Enterococcus faecalis (GC 4552): 2 to 4 µg/mL
  MIC Enterococcus faecalis (GC 4553): 2 to 4 µg/mL
  MIC Enterococcus faecalis (GC 4554): 2 to 4 µg/mL
  MIC Enterococcus faecalis (GC 6189): 1 to 4 µg/mL
  MIC Enterococcus faecium (GC 2243): 2 to 4 µg/mL
  MIC Enterococcus faecium (GC 4556): 2 to 4 µg/mL
  MIC Enterococcus faecium (GC 4557): 1 to 2 µg/mL
Enterococcus sp.; inoculum 5×10^5 CFU/mL, strain ATCC 29212
  MIC Enterococcus faecalis (ATCC 29212): 2 to 4 µg/mL
Enterococcus sp.; inoculum 5×10^5 CFU/mL, strain GC 2242
  MIC Enterococcus faecalis (GC 2242): 2 to 4 µg/mL
Enterococcus sp.; inoculum 5×10^5 CFU/mL, strain GC 2243
  MIC Enterococcus faecium (GC 2243): 2 to 4 µg/mL
Enterococcus sp.; inoculum 5×10^5 CFU/mL, strain GC 2691
  MIC Enterococcus faecalis (GC 2691): 2 to 4 µg/mL
Enterococcus sp.; inoculum 5×10^5 CFU/mL, strain GC 3059
  MIC Enterococcus faecalis (GC 3059): 2 to 4 µg/mL
Enterococcus sp.; inoculum 5×10^5 CFU/mL, strain GC 4552
  MIC Enterococcus faecalis (GC 4552): 2 to 4 µg/mL
Enterococcus sp.; inoculum 5×10^5 CFU/mL, strain GC 4553
  MIC Enterococcus faecalis (GC 4553): 2 to 4 µg/mL
Enterococcus sp.; inoculum 5×10^5 CFU/mL, strain GC 4554
  MIC Enterococcus faecalis (GC 4554): 2 to 4 µg/mL
Enterococcus sp.; inoculum 5×10^5 CFU/mL, strain GC 4556
  MIC Enterococcus faecium (GC 4556): 2 to 4 µg/mL
Enterococcus sp.; inoculum 5×10^5 CFU/mL, strain GC 4557
  MIC Enterococcus faecium (GC 4557): 1 to 2 µg/mL
Enterococcus sp.; inoculum 5×10^5 CFU/mL, strain GC 4558
  MIC Enterococcus avium (GC 4558): 2 to 4 µg/mL
Enterococcus sp.; inoculum 5×10^5 CFU/mL, strain GC 6189
  MIC Enterococcus faecalis (GC 6189): 1 to 4 µg/mL
Staphylococcus sp.
  MIC Coagulase Negative Staphylococcus (GC 4547): 0.5 to 2 µg/mL
  MIC Coagulase Negative Staphylococcus (GC 4548): 0.12 to 0.5 µg/mL
  MIC Coagulase Negative Staphylococcus (GC 4549): 0.12 to 0.5 µg/mL
  MIC Coagulase Negative Staphylococcus (GC 4551): 0.25 to 1 µg/mL
  MIC Coagulase Negative Staphylococcus (GC 6257): 0.25 to 0.5 µg/mL
  MIC Staphylococcus aureus (ATCC 29213): 1 to 2 µg/mL
  MIC Staphylococcus aureus (GC 1131): 0.5 to 2 µg/mL
  MIC Staphylococcus aureus (GC 3051): 1 to 2 µg/mL
  MIC Staphylococcus aureus (GC 3053): 1 to 2 µg/mL
  MIC Staphylococcus aureus (GC 4541): 0.5 to 2 µg/mL
  MIC Staphylococcus aureus (GC 4542): 0.25 to 2 µg/mL
  MIC Staphylococcus aureus (GC 4544): 1 to 2 µg/mL
  MIC Staphylococcus aureus (GC 4545): 0.5 to 1 µg/mL
  MIC Staphylococcus aureus-SMITH (GC 4543): 0.5 to 2 µg/mL
  MIC Staphylococcus haemolyticus (GC 4546): 0.25 to 1 µg/mL
Staphylococcus sp.; strain ATCC 29213
  MIC Staphylococcus aureus (ATCC 29213): 1 to 2 µg/mL
Staphylococcus sp.; strain GC 1131
  MIC Staphylococcus aureus (GC 1131): 0.5 to 2 µg/mL
Staphylococcus sp.; strain GC 3051
  MIC Staphylococcus aureus (GC 3051): 1 to 2 µg/mL
Staphylococcus sp.; strain GC 3053
  MIC Staphylococcus aureus (GC 3053): 1 to 2 µg/mL
Staphylococcus sp.; strain GC 4541
  MIC Staphylococcus aureus (GC 4541): 0.5 to 2 µg/mL
Staphylococcus sp.; strain GC 4542
  MIC Staphylococcus aureus (GC 4542): 0.25 to 2 µg/mL
Staphylococcus sp.; strain GC 4543
  MIC Staphylococcus aureus-SMITH (GC 4543): 0.5 to 2 µg/mL
Staphylococcus sp.; strain GC 4544
  MIC Staphylococcus aureus (GC 4544): 1 to 2 µg/mL
Staphylococcus sp.; strain GC 4545
  MIC Staphylococcus aureus (GC 4545): 0.5 to 1 µg/mL
Staphylococcus sp.; strain GC 4546
  MIC Staphylococcus haemolyticus (GC 4546): 0.25 to 1 µg/mL
Staphylococcus sp.; strain GC 4547
  MIC Coagulase Negative Staphylococcus (GC 4547): 0.5 to 2 µg/mL
Staphylococcus sp.; strain GC 4548
  MIC Coagulase Negative Staphylococcus (GC 4548): 0.12 to 0.5 µg/mL
Staphylococcus sp.; strain GC 4549
  MIC Coagulase Negative Staphylococcus (GC 4549): 0.12 to 0.5 µg/mL
Staphylococcus sp.; strain GC 4551
  MIC Coagulase Negative Staphylococcus (GC 4551): 0.25 to 1 µg/mL
Staphylococcus sp.; strain GC 6257
  MIC Coagulase Negative Staphylococcus (GC 6257): 0.25 to 0.5 µg/mL
